Laboratory results reported in patent publication EP0405748A1, “Phosphonoderivative of purine with antiviral activity” (Beecham Group p.l.c., priority 1989, dated 1991).
≈ marks a conversion by molar mass, not a printed value. Like-named read-outs stand apart in the source and are kept apart here.

Key:
Format in all cases: cell-based
[1] = tested on: herpes simplex virus 1 (HSV-1; HFEM strain); assay: Plaque Reduction Test for Herpes Simplex Virus 1; conditions: Human alphaherpesvirus 1, Vero or MRC-5 cells, read-out: IC₅₀ against HSV-1 virus
Method: (§1) Vero or MRC-5 cells were grown to confluence in 24 well multi-dishes (well diameter = 1.5cm). The drained cell monolayers were each infected with approximately 50 infectious particles of herpes simplex virus 1 (HSV-1; HFEM strain) or herpes simplex virus 2 (HSV-2; strain MS) in 100µl of phosphate-buffered saline. The virus was adsorbed for 1 hour at room temperature. After adsorption, residual inoculum was removed from each well and replaced with 0.5ml of Eagle's MEM containing 5% newborn calf serum and 0.9% agarose (A37). Once the agarose had set, dilutions of the test compound, which had been prepared in Eagle's MEM (containing 5% newborn calf serum), were added, each well receiving 0.5ml of liquid overlay. The test compound was diluted to give the following series of concentrations: 200, 60, 20, 6....0.06µg/ml; final concentrations in the assay ranged, therefore, between 100µg/ml and 0.03µg/ml. The infected cultures were incubated at 37 °C in a humidified atmosphere of 5% CO₂ until plaques were clearly visible (2 or 3 days for Vero cells, usually 1 day for MRC-5 cells).
(§2) Cultures from 1 and 2 were fixed in formal saline, the agarose overlays were carefully washed off, and then the cell monolayers were stained with carbol fuchsin. A stereo microscope was used to count plaques. The IC₅₀ (concentration of drug which inhibits the number of plaques formed by 50% relative to the number of plaques observed in virus control monolayers) of the test compound was calculated. In addition, the monolayers were examined for evidence of drug-induced cytotoxicity; the minimum concentration at which cytotoxicity occurred was recorded.

[2] = tested on: herpes simplex virus 2 (HSV-2; strain MS); assay: Plaque Reduction Test for Herpes Simplex Virus 2; conditions: Human alphaherpesvirus 2, Vero or MRC-5 cells, read-out: IC₅₀ against HSV-2
Method: as §1, §2

[3] = tested on: varicella zoster virus (VZV; Ellen strain); assay: Plaque Reduction Test for Varicella Zoster Virus; conditions: Human alphaherpesvirus 3, MRC5, MRC-5 cells, read-out: IC₅₀ against VZV
Method: MRC-5 cells were grown to confluence in 24 well multi-dishes (well diameter = 1.5cm). The drained cell monolayers were each infected with approximately 50 infectious particles of varicella zoster virus (VZV; Ellen strain) in 100µl of phosphate-buffered saline. The virus was adsorbed for 1 hour at room temperature. After adsorption, residual inoculum was removed from each well and replaced with 0.5ml of Eagle's MEM containing 5% heat-inactivated foetal calf serum and 0.9% agarose (A37). Once the agarose had set, dilutions of the test compound, which had been prepared in Eagle's MEM (containing 5% heat-inactivated foetal calf serum), were added, each well receiving 0.5ml of liquid overlay. The test compound was diluted to give the following series of concentrations: 200, 60, 20, 6....0.06µg/ml; final concentrations in the assay ranged, therefore, between 100µg/ml and 0.03µg/ml. The infected cultures were incubated at 37 °C in a humidified atmosphere of 5% CO₂ until plaques were clearly visible (5 or 6 days).
as §2

[4] = tested on: cytomegalovirus (CMV; AD-169 strain); assay: Plaque Reduction Test for Cytomegalovirus; conditions: Human betaherpesvirus 5, AD169, MRC5, MRC-5 cells, read-out: IC₅₀ against CMV
Method: MRC-5 cells were grown to confluence in 24 well multi-dishes (well diameter = 1.5cm). The drained cell monolayers were each infected with approximately 50 infectious particles of cytomegalovirus (CMV; AD-169 strain) in 100µl of phosphate-buffered saline. The virus wasadsorbed for 1 hour at room temperature. After adsorption, residual inoculum was removed from each well and replaced with 1ml of Eagle's MEM containing 10% heatinactivated foetal calf serum and 0.9% agarose (A37). Once the agarose had set, dilutions of the test compound, which had been prepared in Eagle's MEM (containing 10% heat-inactivated calf serum), wereadded, each well receiving 1ml of liquid overlay. The test compound was diluted to give the following series of concentrations: 200, 60, 20, 6....0.06µg/ml; final concentrations in the assay range, therefore, between 100µg/ml and 0.03µg/ml. The infected cultures were incubated at 37 °C in a humidified atmosphere containing 5% CO₂ until plaques were clearly visible (about 12days). The cultures are fixed in formol saline, the agarose overlays were carefully washed off, and then the cell monolayers were stained with carbol fuchsin. A stereo microscope was used to count plaques. The IC₅₀ (concentration of drug which inhibits the number of plaques formed by 50% relative to the number of plaques observed in virus control monolayers) of the test compound was calculated. In addition, the monolayers were examined for evidence of drug-induced cytotoxicity; the minimum concentration at which cytotoxicity occurs was recorded.

HIV-1 strain virus = assay: HIV Suppression test in peripheral human lymphocytes (p24 ELISA and viral RNA hybridisation); conditions: Human immunodeficiency virus 1, Lymphocyte; for inhibition at 1 µM: Concn. 1 µM; for inhibition at 10 µM: Concn. 10 µM
Method: Peripheral human lymphocytes were prepared, cultivated, and harvested as above. Following the determination of the lymphocyte surface markers, unstimulated and mitogen stimulated cells were combined in a ratio of 1:2.
Under safety conditions these cells are infected with a standard preparation of HIV. The cells are sedimented by centrifugation. The supernatant was discarded and cells were resuspended in the HIV inoculum.
This inoculum is a liquid suspension of HIV-1 strain virus, pretested and adjusted to a titer that results in a synthesis of viral core protein p24 of >100 ng/ml at day four following infection of human lymphocytes according to the protocol.
3x10⁸ lymphocytes were resuspended in 1 ml HIV inoculum and incubated at 37 °C for 60 minutes. Subsequently, the cells were washed two times with 50 ml of culture medium and resuspended in culture medium containing 10 units/ml of human recombinant interleukin-2 to yield a cell concentration of 2x10⁶ cells/ml. 100µl of this cell suspension was added to each well of the microtiter plates containing the diluted solutions of the compounds. The microtiter plates were cultivated in an incubator with a humidified atmosphere and 5% CO₂ at 37 °C.
Accordingly, a fraction of lymphocytes was mock-infected with the same virus preparation that was heat inactivated (30 minutes at 56 °C) prior to infection.
On each of the days 2,3 and 4 post infection one of the microtiter plates which had been established in triplicate was prepared for determination of viral replication. Viral RNA is determined within the cells whereas the viral core protein p24 was detected in the supernatant of the lymphocyte culture.
Accordingly, 150 µl of supernatant were removed from each well and transferred to the well of a microtiter plate containing 50 µl/well of SDS (sodium dodecylsulfate, 0.08%). These plates were stored frozen. 50 µl of stop solution (1% SDS, 20mM sodium acetate, pH 5.0, and 200 µg/ml heparin) were added to the cells remaining in each well. The plates were stored frozen.
The concentration of p24 synthesized by the HIV infected cells was determined by means of a sandwich ELISA, while the concentration of viral RNA was quantitated by nucleic acid hybridisation, using a ³²P-labelled DNA probe for the gag/pol region of the viral genome. Absolute levels of viral antigen and RNA in drug treated samples were compared with untreated, virus-infected controls and the percentage inhibition calculated.

[5] = 72 h, viral RNA, Day 3 after infection, read-out: % Inhibition on Days 3 and 4 after infection Viral RNA Day 3
[6] = 72 h, viral core protein p24, Day 3 after infection, read-out: % Inhibition on Days 3 and 4 after infection Viral Anitgen Day 3
[7] = 96 h, viral RNA, Day 4 after infection, read-out: % Inhibition on Days 3 and 4 after infection Viral RNA Day 4
[8] = 96 h, viral core protein p24, Day 4 after infection, read-out: % Inhibition on Days 3 and 4 after infection Viral Anitgen Day 4

| Structure (SMILES) | IC50 [1] [µg/mL] | IC50 [2] [µg/mL] | IC50 [3] [µg/mL] | IC50 [4] [µg/mL] | inhibition at 1 µM (HIV-1 strain virus; [5]) [%] | inhibition at 1 µM (HIV-1 strain virus; [6]) [%] | inhibition at 1 µM (HIV-1 strain virus; [7]) [%] | inhibition at 1 µM (HIV-1 strain virus; [8]) [%] | inhibition at 10 µM (HIV-1 strain virus; [5]) [%] | inhibition at 10 µM (HIV-1 strain virus; [6]) [%] | inhibition at 10 µM (HIV-1 strain virus; [7]) [%] | inhibition at 10 µM (HIV-1 strain virus; [8]) [%] |
| --- | --- | --- | --- | --- | --- | --- | --- | --- | --- | --- | --- | --- |
| Nc1nc2c(ncn2OC[C@@H](CO)OCP(=O)(O)O)c(=O)[nH]1 [Example 1, (R)-9-[3-Hydroxy-2-(phosphonomethoxy)propoxy]quanine] | 7 (≈ 20.9 µM) | 10 (≈ 29.8 µM) | 17 (≈ 50.7 µM) | 3 (≈ 8.95 µM) | 73 | 100 | 54 | 35 |  |  |  |  |
| Nc1ncnc2c1ncn2OC[C@@H](CO)OCP(=O)(O)O [Example 3, (R)-9-[3-Hydroxy-2-(phosphonomethoxy)propoxy]adenine] |  |  |  |  |  |  |  |  | 83 | 80 | 90 | 91 |
| Nc1nc2c(ncn2OC[C@H]2COP(=O)(O)CO2)c(=O)[nH]1 [Example 2, (S)-9-[(2-Hydroxy-2-oxo-1,4,2-dioxaphosphorinan-5-yl)methoxy]quanine] | 21 (≈ 66.2 µM) | 15 (≈ 47.3 µM) | 13 (≈ 41 µM) | 3 (≈ 9.46 µM) |  |  |  |  | 92 | 100 | 32 | 33 |
| Nc1nc2c(ncn2OC[C@@H]2COP(=O)(O)CO2)c(=O)[nH]1 [Example 5, (R)-9-[(2-Hydroxy-2-oxo-1,4,2-dioxaphosphorinan-5-yl)methoxy]quanine] | 73 (≈ 230 µM) | 36 (≈ 113 µM) | 24 (≈ 75.7 µM) | 17 (≈ 53.6 µM) |  |  |  |  | 64 | 50 | 0 | 7 |
| Nc1nc2c(ncn2OC[C@H](CO)OCP(=O)(O)O)c(=O)[nH]1 [Example 4, (S)-9-[3-Hydroxy-2-(phosphonomethoxy)propoxy]quanine] | 25 (≈ 74.6 µM) | 23 (≈ 68.6 µM) | 52 (≈ 155 µM) | 29 (≈ 86.5 µM) | 10 | 54 | 14 | 15 |  |  |  |  |
